{"source": "patent US20090202451A1", "about": "“ORAL CARE PRODUCT AND METHODS OF USE AND MANUFACTURE THEREOF” (COLGATE-PALMOLIVE COMPANY, priority 2008, published 2009)", "system": "S. sanguis", "assay": "Ammonia production by S. sanguis at pH 4.0", "assay_type": "cell-based", "conditions": "5 millimolar amino acid, 0.1% sucrose, pH 4.0, 37° C., 30 minutes", "procedure": "An overnight culture of S. sanguis was grown at 37° C. in trypticase soy broth (Becton Dickinson, Sparks, Md.). The culture was centrifuged at 5,000 rpm for 5 minutes at 1 milliliter at a time into preweighed tubes in order to accumulate approximately 5 milligrams of wet pellet weight. The pellet was then resuspended into 20 millimolar potassium phosphate buffer (J T Baker, Phillipsburg, N.J.), pH 4.0, to simulate a stressed environment for the bacterial cell where ammonia would be produced for survival. The final concentration was 5 milligram per milliliter. To this final concentration, a 5 millimolar final concentration of L-arginine. L-citrulline, or L-ornithine was added along with a 0.1% final concentration of sucrose (VWR, West Chester, Pa.). This mixture was then incubated at 37° C. in a shaking water bath for 30 minutes before ammonia production was determined.\nIn order to analyze for ammonia, an Ammonia Assay kit was used from Diagnostic Chemicals Limited (Oxford, Conn.). The intended use of this specific kit is for the in vitro quantification of ammonia in plasma, but the procedure was modified in order to determine and quantify the ammonia production in plaque and/or bacteria."}
{"compound": "N=C(N)NCCC[C@H](N)C(=O)O", "note": "[L-Arginine, L-arginine]", "values": [{"measurement": "Ammonia", "setting": "Trial 3", "result": 2.20, "unit": "ppm"}, {"measurement": "Ammonia", "setting": "Trial 5", "result": 0.5, "unit": "ppm"}]}
